Cytotoxicity data for 99 molecules are collected here from ChEMBL document CHEMBL3507680, “University of Dundee, Gates Library screen for HepG2 cell viability”.

A short description of the data set: Human HepG2 cell viability assay in 384 well format. The data set is classed as toxicity, cell-based. Also noted: dose 125 nL, time 70.5 hour; concentration not given beside the values. The settings on record: HepG2 cells, read-out: Inhibition.
For `CC(C)Oc1ccc(NCc2ccc([S+](C)[O-])cc2)c(F)c1` (centres undefined), the cytotoxicity at 70.5 h came to 7.01%.
In the case of `Cc1ccccc1CN(C)CC(O)COCc1ccccc1Cl` (centres undefined), the cytotoxicity at 70.5 h worked out at 21.6%.
In the case of `CC(C)N(C)CC(=O)NCc1ccccc1N1CCN(C)CC1` it was 9.3%.
Regarding `CC(C)OCCC(=O)Nc1cc(C(=O)N(C)C(C)C)ccc1Cl`, the cytotoxicity at 70.5 h turned out to be 4.24%.
The value for `CCN(C(=O)c1ccc2nnc(C3CCN(S(C)(=O)=O)C3)n2c1)C(C)C` (centres undefined) was -9.62%; that for `Cc1ccc2ncn(C(C)Cn3cccn3)c(=O)c2c1` (centres undefined) was -5.52%; that for `Cc1cc(CN2CCN(C(=O)C3(C#N)CCCCC3)CC2)on1` was -4.13%.
The value for `Cn1ncc2c1NC(=O)CSC2c1ccccc1Cl` (centres undefined) was 14.7%; that for `COc1ccc(-c2cc(C3CCNCC3)ccn2)cc1` was -4.77%.
The value for `CN(C)C(=O)[C@@H]1CCO[C@@H]2CCN(Cc3ccccc3)C[C@@H]21` was -3.08%.
Regarding `O=C(C1CN(c2ncc(F)cn2)CC12CCOCC2)N1CC=CC1` (centres undefined), the cytotoxicity at 70.5 h is -5.64%.
In the case of `O=c1ccc2c(n1CCN1CCCC1)CCN(Cc1ccoc1)CC2` it was -5.75%; in that of `COC(=O)C1CCCCN1C(=O)c1ccc(N(C)C)cc1F` (centres undefined), 2.71%; in that of `Cn1ccnc1CN1C(=O)CO[C@H]2CN(Cc3ccc(F)c(F)c3)C[C@H]21`, 8.11%.
In the case of `OCc1cc2ccccc2nc1NCC1CCN(CC(F)(F)F)C1` (centres undefined) it was 27.3%.
In the case of `CCc1nc(C)cn1C(=O)Nc1ccc(F)cc1` it was 5.48%; in that of `CCOC1COC2(CCN(CC3CC3)CC2)C1` (centres undefined), 11.6%; in that of `O=C(c1cc[nH]n1)N1CCc2cc(Br)sc2C1`, 15.1%.
For `COCCN(Cc1ccoc1)C(=O)c1ccc(Cl)s1`, the cytotoxicity at 70.5 h was -6.8%.
The value for `O=C(c1cnccn1)N1CCCC2(CCN(c3ccccn3)C2)C1` (centres undefined) was 19.3%.
As for `Cn1cnnc1C1CCCN(C(=O)c2cc(C3CC3)on2)C1` (centres undefined), the cytotoxicity at 70.5 h was -10.9%.
With `CN(C)CCCNC(=O)c1cc(Br)c2c(c1)OCCO2`, the cytotoxicity at 70.5 h was -7.25%.
Take `Cc1nccnc1N1Cc2cnc(CC(C)C)nc2C1`: the cytotoxicity at 70.5 h was -6.3%.
Regarding `NC(=O)c1ccc(C2CN(Cc3ccc(F)cc3)CCO2)nc1` (centres undefined), the cytotoxicity at 70.5 h came to 27.6%.
The value for `CNC(=O)CNC(=O)NCc1cc2c(s1)CCC(C)(C)C2` was 2.16%; that for `CC(C)OCCCNC(=O)CC1(Cn2cnnn2)CCCCC1` was -8.88%; that for `CCC(=O)N1CCC2(COCc3c(C)nc(NCc4ccco4)nc32)C1` (centres undefined) was -6.57%.
For `Cc1cc2n(n1)CCN(c1nc(N(C)C)nc3c1CCNC3)C2`, the cytotoxicity at 70.5 h was 14.4%.
The value for `CS(=O)(=O)N1C[C@@H]2COC[C@@H](CC(=O)N3CCCO3)[C@@H]2C1` was -8.58%.
For `CC(C)N(C)Cc1cn2c(n1)CN(C(=O)Cc1ccsc1)CC2`, the cytotoxicity at 70.5 h amounted to 0.0105%.
Turning to `CCc1nc(CN2CCC(C(=O)N(C)C)CC2)cs1`, the cytotoxicity at 70.5 h came out at 0.679%.
In the case of `OCCOCc1n[nH]c2c1CN(Cc1ccco1)C2` it was 12.9%.
Regarding `CS(=O)(=O)c1snnc1C1CCCN(Cc2ccncc2)C1` (centres undefined), the cytotoxicity at 70.5 h is -11.9%.
In the case of `COc1c(CNCc2ccccc2Cn2cccn2)c(C)nn1C` it was -5.48%; in that of `O=C(c1ccc(O)cc1)N1CCN(C(=O)c2ccc3c(c2)COC3)CC1`, 2.44%.
As for `Cc1sc(CN)nc1-c1ccc(Cl)cc1`, the cytotoxicity at 70.5 h is 4.14%.
In the case of `CCCC(C)N(C)C(=O)c1nc(S(C)(=O)=O)n2ccccc12` (centres undefined) it was 0.813%.
The value for `Cc1ccc(-n2ccnc2)c(C(=O)NCCOCC(F)(F)F)c1` was -8.14%.
On to `CC(=O)NCc1ccc(C(=O)N2CCCc3c(F)ccc(C)c32)o1`, for which the cytotoxicity at 70.5 h is -2.6%.
The value for `Cc1nc(CN2C[C@@H]3CN(C(=O)c4cnccn4)C[C@@H]3C2)cs1` was -11.6%.
Turning to `CCOc1cccc(CNC(=O)NC2CC=CC2)c1OC(F)F`, the cytotoxicity at 70.5 h came to 0.101%.
The value for `O=C(COCC1CC1)Nc1ncccc1I` was 2.42%.
The value for `Cn1cc(-c2cnc(N3CCOCC3)nc2)cc1C(=O)N1CCCC1` was -27.5%; that for `CC(C)n1cnc2c1C(C(=O)N1CCOCC1)N(CC1CC1)CC2` (centres undefined) was -15.8%.
In the case of `Cc1ccc(C(=O)NS(=O)(=O)c2cc(F)ccc2F)c(=O)[nH]1` it was -13.1%; in that of `CCCn1ccc2ccc(NC(=O)N(C)CCOC)cc21`, -1.44%; in that of `O=C(NCC1CCN(Cc2cc3ccccc3[nH]2)C1)c1ccsc1` (centres undefined), -9.16%.
In the case of `Cc1ccc(OCCN(C)S(=O)(=O)c2cnn(C)c2)cc1`, the cytotoxicity at 70.5 h is -4.35%.
On to `c1ccc2c(CC3CN(Cc4nccs4)CCO3)cccc2c1` (centres undefined), for which the cytotoxicity at 70.5 h is -0.398%.
Regarding `CN(C)c1nc(CNC(=O)NC2COc3ccccc32)cs1` (centres undefined), the cytotoxicity at 70.5 h is 2.4%.
Consider `CSCc1cc(F)ccc1CNC(=O)N1CCC(CO)CC1`, for which the cytotoxicity at 70.5 h is -0.781%.
As for `O=C(O)c1cccnc1CN1CCOc2ccccc2C1`, the cytotoxicity at 70.5 h was -9.48%.
As for `Cc1ccc(CC(=O)N2CCOCC2c2c(C)n[nH]c2C)cc1` (centres undefined), the cytotoxicity at 70.5 h is -21.7%.
For the molecule `CCN1CCC(CNCc2cc(OC)ccc2OC)C1` (centres undefined), the cytotoxicity at 70.5 h turned out to be 5.64%.
In the case of `C[C@@H]1CN(C(=O)C2(Cn3cccn3)CC2)CC[C@@]1(O)C1CCOCC1` it was -0.0584%.
In the case of `CN(C)C(=O)N1CCN(Cc2cnn(C)c2)CC2(CNC(=O)C2)C1` (centres undefined) it was -7.42%; in that of `COC(=O)c1ccc(N(C(=O)c2cccnc2C)C(C)C)c(C)c1`, -7.81%; in that of `C1CCN(Cc2nnn3c2CN(CC2CC2)CCC3)C1`, 0.89%.
The value for `c1coc(CN2C[C@@H]3OCCN(CCN4CCCC4)[C@@H]3C2)c1` was -7.43%; that for `Cc1nc(CCNC(=O)NC2CCCN(c3ncccn3)C2)cs1` (centres undefined) was 23.9%; that for `O=C(O)c1cc(-c2ccncc2)cc(S(=O)(=O)N2CCCCCC2)c1` was -18.9%.
Take `Cc1cc(N2CCCN(C(=O)Cc3csc(C)n3)CC2)ccn1`: the cytotoxicity at 70.5 h was -12.4%.
In the case of `COc1cccc(-c2cc(CN)ccc2F)c1F` it was -8.44%.
The value for `O=C(Cc1ccc(F)cc1)NCc1ccc(C(=O)O)o1` was -2.52%; that for `CN1CCN(c2ccccc2CNC(=O)CSC(F)(F)F)CC1` was -6.98%.
On to `COc1ccc(OC)c(-c2nc(CN(C)Cc3noc(C)n3)c(C)o2)c1`, for which the cytotoxicity at 70.5 h is -21.2%.
With `O=C(CCCNc1ncccn1)Nc1cc(C(F)(F)F)c[nH]c1=O`, the cytotoxicity at 70.5 h was -2.93%.
The value for `O=C(O)c1ccccc1C1CCN(Cc2ccc(-c3cc[nH]n3)o2)C1` (centres undefined) was -2.33%; that for `Cc1nc(NC(=O)CNC(=O)c2c(F)cccc2Cl)n[nH]1` was -6.51%; that for `CN(C)Cc1nc(C(C)(C)NC(=O)c2ccc3ccccc3c2)no1` was -6.87%.
The value for `CC(C)n1cnnc1Cn1ccc2ncccc2c1=O` was 1%; that for `O=C(NCCOc1ncc(Cl)cc1Cl)c1ccncc1` was 1.47%; that for `CCSCCNc1cc(C)nc2c(C)c(C)nn12` was -4.65%.
For `COC(=O)C(C)N(Cc1cc(C)on1)C1CC1` (centres undefined), the cytotoxicity at 70.5 h is -5.22%.
`CN1Cc2c(C(=O)NCC3CCCO3)ncn2-c2ccccc2S1(=O)=O` (centres undefined): the cytotoxicity at 70.5 h was -0.787%.
In the case of `Cc1cccc(S(=O)(=O)N2C[C@@H]3C[C@@H](c4nnc(C)[nH]4)O[C@@H]3C2)c1` it was -1.93%; in that of `OC1(CN2CCCC2)CCCN(Cc2cnc(-c3ccccc3)nc2)C1` (centres undefined), 31.4%; in that of `CNC(=O)[C@H]1C[C@H]2OCC[C@H]2N(CC2CC2)C1`, -3.14%.
For the molecule `COc1c(C2CCCN2C(=O)c2ccc(C(N)=O)s2)c(C)nn1C` (centres undefined), the cytotoxicity at 70.5 h was -7.38%.
Consider `Cc1cccc(NC2CCN(C(=O)Nc3cn[nH]c3)CC2)n1`, for which the cytotoxicity at 70.5 h is -6.92%.
Take `Cc1nccn1C1CCCN(C(=O)c2ccc3c(c2)nnn3C)C1` (centres undefined): the cytotoxicity at 70.5 h was -6.07%.
The value for `CC(=O)NCCNC(=O)c1cccc(Cn2nc(C)cc2C)c1` was -1.57%; that for `CN(C)C(=O)CN1C[C@@H]2CC[C@H](C1)N(Cc1cc(F)ccc1F)C2` was 7.45%; that for `Cc1cc(NCc2cccc(C#N)c2)ccc1C(=O)N(C)C` was -9.77%.
Take `CN(Cc1cccc2cccnc12)C1CCS(=O)(=O)C1` (centres undefined): the cytotoxicity at 70.5 h came to 24.2%.
The value for `Cc1cnn(CC2CCCN2C(=O)CCc2c(C)nc(C)[nH]c2=O)c1` (centres undefined) was -10.8%.
For the molecule `COc1cc(F)ccc1NC(=O)NC(C)C(=O)NC(C)(C)C` (centres undefined), the cytotoxicity at 70.5 h is -4.93%.
In the case of `CC(C(=O)N1CCn2cncc2C1)N1C[C@@H](C)O[C@@H](C)C1` (some centres undefined), the cytotoxicity at 70.5 h was determined as 0.983%.
In the case of `NC(=O)c1cccc(-c2cnc(C3CCCNC3)cn2)c1` (centres undefined) it was -7.33%; in that of `CC(=O)N1CCN(Cc2ccccn2)CC2(CC(=O)N(C)C2)C1` (centres undefined), 0.971%; in that of `Cc1nn(-c2ccccc2)c(C)c1-c1ccnc(N2CCCNCC2)n1`, -2.54%.
In the case of `COCCN1CCOCC12CCN(C(=O)c1cccnc1)CC2` it was -8.13%; in that of `CCC(=O)NCC(=O)NCC1CCN(c2cc(Cl)ccc2C)C1` (centres undefined), -1.96%.
Take `O=C(NCCNc1ncccn1)NCCSC(F)(F)F`: the cytotoxicity at 70.5 h was -10.7%.
The value for `O=C1NCCCC12CCN(c1nc3c(c(C(F)(F)F)n1)CCCC3)C2` (centres undefined) was -6%.
The value for `Cc1ccc(C(=O)N(C)Cc2csc(Br)c2)c(=O)[nH]1` was 1.57%.
The value for `COc1ccc(S(=O)(=O)NCc2cccnc2N(C)C)cc1` was -5%; that for `Cc1nnc([C@H]2C[C@H]3OCC[C@H]3N(S(=O)(=O)N(C)C)C2)o1` was -3.65%.
On to `O=C(O)C1(Cc2cc(-c3cccc(F)c3)no2)CCOCC1`, for which the cytotoxicity at 70.5 h is -24%.
